What was measured:
[1] = system: metabolism of 2-acetylnaphtho[2,3-b]furan-4,9-dione in human liver cytosol; test: Screening for an inhibitor of a metabolic enzyme (human liver cytosol, LC-MS/MS); format: biochemical; conditions: test drug 10 μmol/L, substrate 0.5 μmol/L, 37° C., 5 minutes (FIG. 9)
Method: To a reaction solution obtained by dissolving a human liver cytosol (0.1 mg/mL) and NADPH (1 mmol/L) in a phosphate buffer solution, a test drug (10 μmol/L) was added. Then, 2-acetylnaphtho[2,3-b]furan-4,9-dione was added to be 0.5 μmol/L and thereby the reaction was started. After incubation at 37° C. for 5 minutes, 50 nmol/L phenytoin solution, which had been dissolved in 0.1% formic acid-containing acetonitrile, was added and the reaction was terminated. After centrifugation, the resulting supernatant was measured using LC-MS/MS to quantify the residual amount of 2-acetylnaphtho[2,3-b]furan-4,9-dione, and the inhibition intensity of the test drugs was evaluated by comparison with the control group.

H460 cells [2] = test: Intracellular concentration of 2-acetylnaphtho[2,3-b]furan-4,9-dione with a metabolic inhibitor, H460; format: cell-based, human; conditions: 1.0 μmol/L dione with 30 or 100 μmol/L inhibitor, 2 hours (FIG. 11)
Method: (§1) A549 cells or H460 cells were seeded onto a 96-well culture plate (made by Corning Inc.) at 2×10^4/well, and then cultured at 37° C. under 5% carbon dioxide atmosphere in an incubator for 48 hours. After which, they were cultured for 2 hours with 2-acetylnaphtho[2,3-b]furan-4,9-dione in a final concentration of 1.0 μmol/L and in the presence or absence of 30 μmol/L or 100 μmol/L of mefenamic acid or flufenamic acid, and then washed with PBS. After that, 80% methanol was added to each well to obtain a cell lysate. The cell lysate was analyzed using LC-MS/MS to determine the intracellular concentration of 2-acetylnaphtho[2,3-b]furan-4,9-dione.

A549 cells [3] = test: Intracellular concentration of 2-acetylnaphtho[2,3-b]furan-4,9-dione with a metabolic inhibitor, A549; format: cell-based, human; conditions: 1.0 μmol/L dione with 30 or 100 μmol/L inhibitor, 2 hours (FIG. 11)
Method: as §1

[4] = system: metabolism of 2-acetylnaphtho[2,3-b]furan-4,9-dione in human liver cytosol (AKR and CR); test: Identification of a metabolic enzyme of 2-acetylnaphtho[2,3-b]furan-4,9-dione (CR/AKR inhibitors in human liver cytosol); format: biochemical; conditions: AKR inhibitor 1.0 μmol/L or 10 μmol/L, 5 minutes (FIG. 8)
Method: To a reaction solution obtained by dissolving a human liver cytosol (0.1 mg/mL) and NADPH (1 mmol/L) in a phosphate buffer solution, quercitrin (10 μmol/L or 100 μmol/L), which is a CR inhibitor, and phenolphthalein or medroxyprogesterone 17-acetate (1.0 μmol/L or 10 μmol/L), which is an AKR inhibitor, were added. Further, [^14C]-labeled 2-acetylnaphtho[2,3-b]furan-4,9-dione was added to the reaction solution such that the dione concentration is 0.5 μmol/L. After incubation at 37° C. for 5 minutes, Radio-HPLC was used to measure radioactivity.

[5] = Concentration in plasma by combination with sulindac in cancer-bearing mice; format: in vivo, mouse; conditions: oral single dose, 100 mg/kg dione with 25 mg/kg sulindac, two hours after administration (FIG. 14)
Method: The following administration solution (1) or (2) was orally administered to 8 week aged mice (BALB/cAnNCrlCrlj, female, Charles River Laboratories Japan, Inc.) in a single time. […] Methanol was added to the plasma such that the final concentration of methanol is 80%, and then it was centrifuged.

A549 cells [6] = test: Anti-tumor effect in A549 tumor-bearing mice (tumor volume); format: in vivo, mouse; conditions: tumor volume (FIG. 15)
Method: A549 cells of 5×10^6 per individual were transplanted to a right belly part of a 5 week aged mouse (BALB/cAnNCrlCrlj, male, Charles River Laboratories Japan, Inc.). After one week, the following administration solution (1), (2), (3), (4) or (5) was orally administered in a single time. (1) 100 mg/kg of mefenamic acid (2) 30 mg/kg of 2-acetylnaphtho[2,3-b]furan-4,9-dione (3) 100 mg/kg of 2-acetylnaphtho[2,3-b]furan-4,9-dione (4) 30 mg/kg of 2-acetylnaphtho[2,3-b]furan-4,9-dione and 100 mg/kg of mefenamic acid (5) 100 mg/kg of 2-acetylnaphtho[2,3-b]furan-4,9-dione and 100 mg/kg of mefenamic acid According to a schedule in which an administration solution or an administration solution without an agent was continuously administered for five days and then medication was ceased for two days and continuous administration for five days was carried out again, it was orally administered one time a day. The major axis and the minor axis of a tumor mass were measured by vernier calipers at 2 to 5 day intervals, and the tumor volume was calculated by substituting them into the formula: (minor axis)^2×(major axis)/2.

[7] = Concentration in plasma and tumor by combination with mefenamic acid in tumor-bearing mice; format: in vivo, mouse; conditions: oral single dose
Method: The following administration solution (1), (2) or (3) was orally administered to 7 week aged mice (BALB/cAnNCrlCrlj, female, Charles River Laboratories Japan, Inc.) in a single time.
(1) 100 mg/kg of 2-acetylnaphtho[2,3-b]furan-4,9-dione
(2) 100 mg/kg of 2-acetylnaphtho[2,3-b]furan-4,9-dione and 100 mg/kg of mefenamic acid
(3) 100 mg/kg of 2-acetylnaphtho[2,3-b]furan-4,9-dione and 300 mg/kg of mefenamic acid
The blood was collected 2, 6, and 16 hours after the administration, and the blood was centrifuged to give plasma. Methanol was added to the plasma such that the final concentration of methanol is 80%, and then it was centrifuged. Further, protein-removing treatment was carried out by filtering through a filter, and then 2-acetylnaphtho[2,3-b]furan-4,9-dione was detected and quantified using LC-MS/MS (API4000, AB SCIEX). Meanwhile, a tumor mass was collected at the same time as the blood collection, 2-acetylnaphtho[2,3-b]furan-4,9-dione in the tumor was detected and quantified.

H460 cells [8] = test: Cytotoxic effect (cell survival rate, Prest Blue), H460; format: cell-based, human; conditions: single agent treatment with 1.3 μmol/L, 6 hours (FIG. 12)
Method: (§2) A549 cells or H460 cells were seeded onto a 96-well culture plate (Corning) at 2×10^4/well, and then cultured at 37° C. under 5% carbon dioxide atmosphere in an incubator for 48 hours. […] After which, they were cultured in the presence or absence of a test compound (30 μmol/L of flufenamic acid, 100 μmol/L of flufenamic acid, or 100 μmol/L of mefenamic acid as a final concentration) for 6 hours, Prest Blue (Life Technologies) was added, and then incubated for 1 to 2 hours. After the incubation, absorbance at 570 nm was measured to evaluate the cytotoxicity. Absorbance of a well to which a cell had not been added (Ablank) is defined as the background, the cell survival rate was calculated using the following formula to divide a value obtained by multiplying 100 by a value obtained by subtracting the background absorbance from the absorbance of each well (Asample), by a value obtained by subtracting Ablank from the value (Acontrol) of a well in which a cell with no treatment with 2-acetylnaphtho[2,3-b]furan-4,9-dione or a metabolic inhibitor was contained.
(§3) Cell survival rate (%)=(Asample−Ablank)×100/(Acontrol−Ablank)

A549 cells [9] = test: Cytotoxic effect (cell survival rate, Prest Blue), A549; format: cell-based, human; conditions: single agent treatment with 1.3 μmol/L, 6 hours (FIG. 12)
Method: as §2, §3

[10] = Metabolism measurement of 2-acetylnaphtho[2,3-b]furan-4,9-dione in human liver cytosol fractions; format: in vitro ADME; conditions: [14C]-labeled compound 0.5 μmol/L, human liver cytosol 0.1 mg/mL, 37° C. (FIG. 7)
Method: A reaction solution obtained by dissolving a human liver cytosol (0.1 mg/mL) and NADPH (1 mmol/L) in a phosphate buffer solution was prepared. Into the reaction solution, [^14C]-labeled labeled 2-acetylnaphtho[2,3-b]furan-4,9-dione was added such that the dione concentration is 0.5 μmol/L, and thereby the reaction was started. After incubation at 37° C. for a given time, 0.1% formic acid-containing acetonitrile was added to terminate the reaction, and the mixture was centrifuged. After the supernatant was evaporated to dryness under a stream nitrogen gas, re-dissolving solvent [10 mmol/L ammonium acetate:acetonitrile, 9:1 (v/v)] was used to re-dissolve it, and then Radio-HPLC was used to measure radioactivity.

Nc1ccc(S(=O)(=O)c2ccc(N)cc2)cc1 [dapsone]
inhibition of the metabolism of 2-acetylnaphtho[2,3-b]furan-4,9-dione (residual amount vs control) [1]: inhibited

C#C[C@]1(O)CC[C@H]2[C@@H]3CCc4cc(O)ccc4[C@H]3CC[C@@]21C [ethynyl estradiol]
inhibition of the metabolism of 2-acetylnaphtho[2,3-b]furan-4,9-dione (residual amount vs control) [1]: inhibited

CC1CC2C3CCC4=CC(=O)C=CC4(C)C3(F)C(=O)CC2(C)C1(O)C(=O)CCl (centres unmarked) [clobetasone]
inhibition of the metabolism of 2-acetylnaphtho[2,3-b]furan-4,9-dione (residual amount vs control) [1]: inhibited

Cc1ccc(Cl)c(Nc2ccccc2C(=O)O)c1Cl [meclofenamic acid]
inhibition of the metabolism of 2-acetylnaphtho[2,3-b]furan-4,9-dione (residual amount vs control) [1]: inhibited

C[C@H]1C[C@H]2[C@@H]3CCC4=CC(=O)C=C[C@]4(C)[C@@]3(F)[C@@H](O)C[C@]2(C)[C@@]1(O)C(=O)CCl [clobetasol]
inhibition of the metabolism of 2-acetylnaphtho[2,3-b]furan-4,9-dione (residual amount vs control) [1]: inhibited

O=C(O)c1ccccc1Nc1cccc(C(F)(F)F)c1 [flufenamic acid]
inhibition of the metabolism of 2-acetylnaphtho[2,3-b]furan-4,9-dione (residual amount vs control) [1]: inhibited
intracellular concentration of 2-acetylnaphtho[2,3-b]furan-4,9-dione in the presence of the metabolic inhibitor (H460 cells [2]): increased
intracellular concentration of 2-acetylnaphtho[2,3-b]furan-4,9-dione in the presence of the metabolic inhibitor (A549 cells [3]): increased

CCC1=C(C)CN(C(=O)NCCc2ccc(S(=O)(=O)NC(=O)N[C@H]3CC[C@H](C)CC3)cc2)C1=O [glimepiride]
inhibition of the metabolism of 2-acetylnaphtho[2,3-b]furan-4,9-dione (residual amount vs control) [1]: inhibited

CC(=O)N1CCN(c2ccc(OCC3COC(Cn4ccnc4)(c4ccc(Cl)cc4Cl)O3)cc2)CC1 (centres unmarked) [ketoconazole]
inhibition of the metabolism of 2-acetylnaphtho[2,3-b]furan-4,9-dione (residual amount vs control) [1]: inhibited

CC(=O)c1ccc(S(=O)(=O)NC(=O)NC2CCCCC2)cc1 [acetohexamide]
inhibition of the metabolism of 2-acetylnaphtho[2,3-b]furan-4,9-dione (residual amount vs control) [1]: inhibited

O=C1OC(c2ccc(O)cc2)(c2ccc(O)cc2)c2ccccc21 [phenolphthalein]
inhibition of the metabolism of 2-acetylnaphtho[2,3-b]furan-4,9-dione [4]: more strongly inhibited than quercitrin

CC1=C(CC(=O)O)c2cc(F)ccc2/C1=C\c1ccc([S+](C)[O-])cc1 (centres unmarked) [sulindac]
inhibition of the metabolism of 2-acetylnaphtho[2,3-b]furan-4,9-dione (residual amount vs control) [1]: inhibited
concentration of 2-acetylnaphtho[2,3-b]furan-4,9-dione in plasma, combination vs single agent administration [5]: higher

CN(C)CCCN1c2ccccc2Sc2ccc(Cl)cc21 [chlorpromazine]
inhibition of the metabolism of 2-acetylnaphtho[2,3-b]furan-4,9-dione (residual amount vs control) [1]: inhibited

Cc1cccc(Nc2ccccc2C(=O)O)c1C [mefenamic acid]
inhibition of the metabolism of 2-acetylnaphtho[2,3-b]furan-4,9-dione (residual amount vs control) [1]: inhibited
anti-tumor activity as a single agent (A549 cells [6]; 100 mg/kg oral once a day, 5 days on/2 off/5 on): no anti-tumor activity
anti-tumor activity of the combination with 2-acetylnaphtho[2,3-b]furan-4,9-dione vs the dione as a single agent (A549 cells [6]; 30 or 100 mg/kg dione and 100 mg/kg mefenamic acid oral once a day): significantly improved
concentration of 2-acetylnaphtho[2,3-b]furan-4,9-dione in tumor, combination vs single agent group ([7]; 100 mg/kg dione with 300 mg/kg of mefenamic acid (FIG. 13)): higher
concentration of 2-acetylnaphtho[2,3-b]furan-4,9-dione in plasma, combination vs single agent administration ([7]; 100 mg/kg dione with 100 or 300 mg/kg mefenamic acid, 2, 6, 16 hours (FIG. 13)): higher
intracellular concentration of 2-acetylnaphtho[2,3-b]furan-4,9-dione in the presence of the metabolic inhibitor (H460 cells [2]): increased
intracellular concentration of 2-acetylnaphtho[2,3-b]furan-4,9-dione in the presence of the metabolic inhibitor (A549 cells [3]): increased

CC(=O)c1cc2c(o1)C(=O)c1ccccc1C2=O [2-acetylnaphtho[2,3-b]furan-4,9-dione]
cell survival rate (H460 cells [8]): ≥ 100%
cell survival rate (A549 cells [9]): ≥ 100%
metabolism in liver cytosol ([10]; NADPH 1 mmol/L): time-dependently metabolized
metabolite mainly produced in liver cytosol ([10]; NADPH): 2-(1-hydroxyethyl)naphtho[2,3-b]furan-4,9-dione (M1)

CCc1oc2ccccc2c1C(=O)c1cc(Br)c(O)c(Br)c1 [benzbromarone]
inhibition of the metabolism of 2-acetylnaphtho[2,3-b]furan-4,9-dione (residual amount vs control) [1]: inhibited

COc1ccc(Cl)cc1C(=O)NCCc1ccc(S(=O)(=O)NC(=O)NC2CCCCC2)cc1 [glibenclamide]
inhibition of the metabolism of 2-acetylnaphtho[2,3-b]furan-4,9-dione (residual amount vs control) [1]: inhibited

CCCCc1nc(Cl)c(CO)n1Cc1ccc(-c2ccccc2-c2nn[nH]n2)cc1 [losartan]
inhibition of the metabolism of 2-acetylnaphtho[2,3-b]furan-4,9-dione (residual amount vs control) [1]: inhibited

CC(C(O)c1ccc(O)cc1)N1CCC(Cc2ccccc2)CC1 (centres unmarked) [ifenprodil]
inhibition of the metabolism of 2-acetylnaphtho[2,3-b]furan-4,9-dione (residual amount vs control) [1]: inhibited

CC(=O)O[C@]1(C(C)=O)CC[C@H]2[C@@H]3C[C@H](C)C4=CC(=O)CC[C@]4(C)[C@H]3CC[C@@]21C [medroxyprogesterone 17-acetate]
inhibition of the metabolism of 2-acetylnaphtho[2,3-b]furan-4,9-dione [4]: more strongly inhibited than quercitrin

OCc1cc(C(O)CNCCCCCCOCCCCc2ccccc2)ccc1O (centres unmarked) [salmeterol]
inhibition of the metabolism of 2-acetylnaphtho[2,3-b]furan-4,9-dione (residual amount vs control) [1]: inhibited

Reference: patent publication US20200237711A1, “Compositions for Treating and/or Preventing Cancer” (Boston Biomedical, Inc., priority 2017, published 2020)
